Measured values reported in paper PMC6539594, “Triazolopeptides Inhibiting the Interaction between Neuropilin-1 and Vascular Endothelial Growth Factor-165” (Molecules, 2019).
“And” between values parts separate entries of the source, which are not always exact repeats. Equal entries are not always repeated. “Also recorded” adds a separate entry of the source. Where two headings read alike, the source gives them in different places. Where no end group is shown, it is not given here. [ ]: non-standard residue; d: D form. hArg = N=C(N)NCCCC[C@H](N)C(=O)O; Dab = NCC[C@H](N)C(=O)O

Key:
[1] = target: T1, NRP-1 (neuropilin-1), binding of bt-VEGF165 (Homo sapiens, UniProt O14786); experiment: ELISA: inhibition of bt-VEGF165 binding to NRP-1; conditions: for inhibition at 10 µM / Inhibition of bt-VEGF165 Binding to NRP-1 [10 µM]: mean ± S.D.
T1 sequence (O14786 22-923, species assumed): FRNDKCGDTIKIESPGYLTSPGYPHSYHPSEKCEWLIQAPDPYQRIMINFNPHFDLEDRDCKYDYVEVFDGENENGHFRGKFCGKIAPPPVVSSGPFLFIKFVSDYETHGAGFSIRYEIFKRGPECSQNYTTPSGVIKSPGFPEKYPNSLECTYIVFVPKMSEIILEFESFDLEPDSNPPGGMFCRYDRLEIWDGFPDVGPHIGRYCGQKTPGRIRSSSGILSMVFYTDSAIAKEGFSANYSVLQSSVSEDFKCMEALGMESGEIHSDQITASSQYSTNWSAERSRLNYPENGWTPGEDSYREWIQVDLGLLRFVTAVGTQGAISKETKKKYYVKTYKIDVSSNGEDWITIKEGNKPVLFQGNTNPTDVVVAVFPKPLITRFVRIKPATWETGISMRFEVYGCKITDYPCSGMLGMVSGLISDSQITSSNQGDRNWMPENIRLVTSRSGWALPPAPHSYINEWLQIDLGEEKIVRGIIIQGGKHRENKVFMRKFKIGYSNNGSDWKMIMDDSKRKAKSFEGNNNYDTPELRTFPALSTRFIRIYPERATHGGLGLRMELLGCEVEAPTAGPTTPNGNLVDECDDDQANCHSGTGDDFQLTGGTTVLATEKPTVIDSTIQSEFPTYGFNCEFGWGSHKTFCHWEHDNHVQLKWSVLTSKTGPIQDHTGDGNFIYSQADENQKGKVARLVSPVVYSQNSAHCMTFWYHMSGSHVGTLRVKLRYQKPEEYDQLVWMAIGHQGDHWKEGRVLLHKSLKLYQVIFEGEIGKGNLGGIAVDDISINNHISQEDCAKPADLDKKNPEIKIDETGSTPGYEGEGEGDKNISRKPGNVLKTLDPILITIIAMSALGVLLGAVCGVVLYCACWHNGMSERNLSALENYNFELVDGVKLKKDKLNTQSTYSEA
Protocol: The inhibitory activity of obtained triazolopeptides 1–23 toward binding of VEGF165 to NRP-1 was measured with the enzyme-linked immunosorbent assay (ELISA). This protocol was described earlier in the literature and was broadly used by our group. VEGF165 was used in biotinylated form (bt-VEGF165).
This assay was carried out according to a previously described method.

[2] = Proteolytic stability by incubation in human plasma at 37 °C (HPLC-MS); type: in vitro ADME; conditions: for remaining at 8 h, 1.1 µmol/mL / remaining at 16 h, 1.1 µmol/mL / remaining at 24 h, 1.1 µmol/mL / remaining at 32 h, 1.1 µmol/mL / remaining at 40 h, 1.1 µmol/mL / remaining at 48 h, 1.1 µmol/mL: human; for remaining at 8 h, 1.1 µmol/mL / remaining at 16 h, 1.1 µmol/mL / remaining at 24 h, 1.1 µmol/mL / remaining at 32 h, 1.1 µmol/mL / remaining at 40 h, 1.1 µmol/mL / remaining at 48 h, 1.1 µmol/mL / half-life: pooled human plasma
Protocol: The samples of the incubated solutions were taken at constant time intervals (every 8 h) and analyzed with the use of HPLC-MS. This technique allows for determination of the proteolysis rate, and enables finding the cleavage sites by structural determination of appearing metabolites. To this aim, we used a previously established protocol.
The human plasma was provided by Mossakowski Medical Research Centre Polish Academy of Sciences (venous blood was obtained from three healthy donors and plasma samples were pooled in equal volumes). Triazolopeptide stock solution was prepared to achieve concentration ca. 1.4 mg/mL. Then, this solution was diluted two-fold into human plasma, affording a final concentration of ca. 1.1 µmol/mL. The samples were mixed on vortex mixer and incubated at 37 °C with 700 rpm mixing in thermoblock. Samples of 100 µL were taken every 8 h; the enzymatic cleavage was quenched by addition of 200 µL of 15% aqueos trichloroacetic acid and vortexed for a while. Precipitated proteins were then centrifuged at 14,000 rpm and 4 °C for 10 min to pellet them. After that, 150 µL of supernatant was taken and analyzed on HPLC-MS (quadrupole mass analyzer and electrospray ionization source). The system was equipped with Jupiter Proteo column I.D. 2.0 mm × 250 mm, phase A: ultrapure water + 0.05% TFA, phase B: gradient grade acetonitrile + 0.05% TFA, detection at 210 nm, quadrupole fixed on scan mode. Elution was with linear increase from 0% to 15% of phase B in 30 min, flow = 0.2 mL/min. All samples were analyzed trice in independent experiments.

[3] = test system: myeloblast-like cell line derived from bone marrow (32D); experiment: In vitro cell survival test (Muse Count & Viability Kit); conditions: 32D cells
Protocol: (§1) For this reason, we carried out a preliminary cytotoxicity assay on murine progenitor cells (myeloblast-like cell line derived from long term cultures of bone marrow 32D) to investigate the impact of 4 at different concentrations on their viability.
(§2) For the cell survivability test, the myeloblast-like cell line derived from long term cultures of bone marrow (32D, ATCC #CRL-11346) was used. Experiments were carried out using Muse Count & Viability Kit and Muse Cell Analyzer (Merck Millipore) according to the procedure given. Cells were incubated for 24 or 48 h with given 4 concentration. Each experiment was performed in three technical replications in three independent experiments.

in vitro = conditions: mouse, cell viability (Muse Cell Analyser), single replicates
Protocol: as §1, §2

[4] = target: T1, NRP-1 (neuropilin-1), binding of bt-VEGF165; conditions: cited from earlier work
[5] = test system: drug-resistant MDA-MB-231 human breast cancer cells xenograft; design: method as in PMID 16959272; conditions: nude mice xenografted with drug-resistant MDA-MB-231 human breast cancer cells; cited from earlier work
[6] = design: method as in PMID 30241012; conditions: human plasma; cited from earlier work
[7] = read-out: Relative (peak area average vs 0 h)

## N=C(N)NCCCC[C@H](N)C(=O)NCCCC[C@H](N)C(=O)NCc1cn(Cc2cn([C@@H](CCCNC(=N)N)C(=O)O)nn2)nn1 [Compound 3, Lys(Har)-GlyΨ[Trl]GlyΨ[Trl]Arg]
[1]
  IC50: 8.39 µM
  inhibition at 10 µM: 58.1 ± 2.1%
[2]
  compound remained in the solution after 48 h of incubation: more than 70%
  half-life: > 2880 min
[2]; [7]
  remaining at 8 h, 1.1 µmol/mL: 91.3%
  remaining at 16 h, 1.1 µmol/mL: 90%
  remaining at 24 h, 1.1 µmol/mL: 87.6%
  remaining at 32 h, 1.1 µmol/mL: 81.8%
  remaining at 40 h, 1.1 µmol/mL: 73.4%
  remaining at 48 h, 1.1 µmol/mL: 72.2%
[2]; read-out: compound remained in the solution after 48 h of incubation
  remaining at 48 h, 1.1 µmol/mL: ~70%

## N=C(N)NCCCC[C@H](N)C(=O)NCCCC[C@@H](N)C(=O)NCc1cn(Cc2cn([C@@H](CCCNC(=N)N)C(=O)O)nn2)nn1 [Compound 4, D-Lys(Har)-GlyΨ[Trl]GlyΨ[Trl]Arg]
[3]; 100 µM, 48 h incubation
  impact on cell survivability: does not exhibit any significant impact on normal cells’ viability; also recorded: does not exhibit any significant impact on cell survivability
[3]; different concentrations
  cell survival, t-test: No significant differences in cell survival
In vitro
  viability at 24 h, 0.1 µM: 99.4%
  viability at 24 h, 1 µM: 99.3%
  viability at 24 h, 10 µM: 99%
  viability at 24 h, 50 µM: 98.7%
  viability at 24 h, 100 µM: 98.6%
  viability at 48 h, 0.1 µM: 99.4%
  viability at 48 h, 1 µM: 99.6%
  viability at 48 h, 10 µM: 99.4%
  viability at 48 h, 50 µM: 99.7%
  viability at 48 h, 100 µM: 99.2%
[1]
  IC50: 10.2 µM
  inhibition at 10 µM: 52.6 ± 1.3%
[2]
  compound remained in the solution after 48 h of incubation: almost undigested; also recorded: almost non-degraded
  half-life: > 2880 min
[2]; [7]
  remaining at 8 h, 1.1 µmol/mL: 99.4%
  remaining at 16 h, 1.1 µmol/mL: 95.7%
  remaining at 24 h, 1.1 µmol/mL: 93.3%
  remaining at 32 h, 1.1 µmol/mL: 93.1%
  remaining at 40 h, 1.1 µmol/mL: 93%
  remaining at 48 h, 1.1 µmol/mL: 91.8%

## N=C(N)NCCCC[C@@H](N)C(=O)NCCCC[C@@H](N)C(=O)NCc1cn(Cc2cn([C@@H](CCCNC(=N)N)C(=O)O)nn2)nn1 [Compound 5, D-Lys(D-Har)-GlyΨ[Trl]GlyΨ[Trl]Arg]
[1]
  inhibition at 10 µM: 48.5 ± 2.9%
[1]; dose-response curve, supplement
  IC50: 9.11 µM

## ATWKPPR [A7R]
[4]
  Inhibition of bt-VEGF165 Binding to NRP-1 [10 µM]: 61.0 ± 0.4 ^3%
  IC50: 5860 nM
[5]
  activity in vivo: active in vivo

## D-Lys(Fmoc-Har)-GlyΨ[Trl]GlyΨ[Trl]Arg [Compound 15]
[1]
  Inhibition of bt-VEGF165 Binding to NRP-1 [10 µM]: 43.7 ± 0.5%

## D-Lys(Har)-GlyΨ[Trl]Arg [Compound 2]
[1]
  Inhibition of bt-VEGF165 Binding to NRP-1 [10 µM]: 33.1 ± 1.9%

## D-Lys(Har)-Phe-GlyΨ[Trl]Arg [Compound 9]
[1]
  Inhibition of bt-VEGF165 Binding to NRP-1 [10 µM]: 37.9 ± 1.1%

## D-Lys(Har)-Pro-GlyΨ[Trl]Arg [Compound 7]
[1]
  Inhibition of bt-VEGF165 Binding to NRP-1 [10 µM]: 38.4 ± 1.5%

## Dab(Har)-GlyΨ[Trl]GlyΨ[Trl]Arg [Compound 17]
[1]
  Inhibition of bt-VEGF165 Binding to NRP-1 [10 µM]: 41.3 ± 0.5%

## Dap(Har)-GlyΨ[Trl]GlyΨ[Trl]Arg [Compound 18]
[1]
  Inhibition of bt-VEGF165 Binding to NRP-1 [10 µM]: 25.3 ± 3.5%

## Har-5Ava-GlyΨ[Trl]GlyΨ[Trl]Arg [Compound 20]
[1]
  Inhibition of bt-VEGF165 Binding to NRP-1 [10 µM]: 29.7 ± 1.8%

## Har-6Ahx-GlyΨ[Trl]GlyΨ[Trl]Arg [Compound 19]
[1]
  Inhibition of bt-VEGF165 Binding to NRP-1 [10 µM]: 30.5 ± 0.6%

## Har-Ala-GlyΨ[Trl]GlyΨ[Trl]Arg [Compound 21]
[1]
  Inhibition of bt-VEGF165 Binding to NRP-1 [10 µM]: 27.8 ± 2.1%

## Har-Gly-GlyΨ[Trl]GlyΨ[Trl]Arg [Compound 22]
[1]
  Inhibition of bt-VEGF165 Binding to NRP-1 [10 µM]: 35.7 ± 1.6%

## Har-GlyΨ[Trl]GlyΨ[Trl]Arg [Compound 23]
[1]
  Inhibition of bt-VEGF165 Binding to NRP-1 [10 µM]: 20.0 ± 2.1%

## Har-GlyΨ[Trl]GlyΨ[Trl]GlyΨ[Trl]Arg [Compound 13]
[1]
  Inhibition of bt-VEGF165 Binding to NRP-1 [10 µM]: 34.8 ± 1.5%

## Har-Lys-GlyΨ[Trl]GlyΨ[Trl]Arg [Compound 16]
[1]
  Inhibition of bt-VEGF165 Binding to NRP-1 [10 µM]: 36.5 ± 1.4%

## Har-Pro-GlyΨ[Trl]Arg [Compound 12]
[1]
  Inhibition of bt-VEGF165 Binding to NRP-1 [10 µM]: 9.2 ± 0.8%

## Lys(Fmoc-Har)-GlyΨ[Trl]GlyΨ[Trl]Arg [Compound 14]
[1]
  Inhibition of bt-VEGF165 Binding to NRP-1 [10 µM]: 57.7 ± 1.8%

## Lys(Har)-Dab-Pro-Arg
[4]
  Inhibition of bt-VEGF165 Binding to NRP-1 [10 µM]: 98.5%
  IC50: 200 nM
[6]
  t1/2: 34 h

## Lys(Har)-Dap-Pro-Arg
[4]
  Inhibition of bt-VEGF165 Binding to NRP-1 [10 µM]: 96.8%
  IC50: 200 nM
[6]
  t1/2: 41 h

## Lys(Har)-GlyΨ[Trl]Ala-Arg [Compound 10]
[1]
  Inhibition of bt-VEGF165 Binding to NRP-1 [10 µM]: 43.3% and 43.2 ± 1.5%

## Lys(Har)-GlyΨ[Trl]Arg [Compound 1]
[1]
  Inhibition of bt-VEGF165 Binding to NRP-1 [10 µM]: 28.1 ± 1.2%

## Lys(Har)-GlyΨ[Trl]Gly-Arg [Compound 11]
[1]
  Inhibition of bt-VEGF165 Binding to NRP-1 [10 µM]: 30.6 ± 1.1%

## Lys(Har)-Phe-GlyΨ[Trl]Arg [Compound 8]
[1]
  Inhibition of bt-VEGF165 Binding to NRP-1 [10 µM]: 30.9 ± 2.1%

## Lys(Har)-Pro-Ala-Arg
[6]
  t1/2: 0.65 h

## Lys(Har)-Pro-Ala-Arg (KPAR)
[4]
  IC50: 200 nM

## Lys(Har)-Pro-Dab-Arg
[6]
  t1/2: 0.733 h

## Lys(Har)-Pro-Dab-Arg (K(hArg)P[Dab]R)
[4]
  IC50: 300 nM

## Lys(Har)-Pro-GlyΨ[Trl]Arg [Compound 6]
[1]
  Inhibition of bt-VEGF165 Binding to NRP-1 [10 µM]: 18.3 ± 0.9%

## Lys-Pro-Pro-Arg (KPPR; printed: Lys-Pro-Pro-Arg)
[4]
  Inhibition of bt-VEGF165 Binding to NRP-1 [10 µM]: 64.5%
  IC50: 4600 nM
